Source: US8835640B1, “Nicotine derivatives” (priority 2011, dated 2014)
Values after ≈ are worked out from the molar mass of the structure shown.

Key:
[1] = test system: fungal cultures (Candida albicans & Cryptococcus neoformans); assay: Kirby-Bauer disc diffusion, fungi; assay type: cell-based
[2] = test system: Male Wistar rats; assay: Eddy Hot Plate method; assay type: in vivo; conditions: 0.5 mg/kg and 1 mg/kg s.c., 55±0.5° C., compared to pentazocine 20 mg/kg s.c.
Experimental: Male Wistar rats initially weighing 180-200 g were divided into the following groups of six animals each as follows: • Experiment-I: • 1. Group-I: Control—10% Dimethyl sulfoxide (DMSO) (0.5 ml s.c) • 2. Group-II: Standard—Pentazocine (20 mg/kg body weight, s.c.) • 3. Group-III: Compound-ARP100102 (0.5 mg/kg body weight, s.c.) • Experiment-II: • Same as Experiment I except Group III dosage was 1 mg/kg body weight. • The hot plate method was originally developed by Woolfe and MacDonald (1944). The paws of rat are very sensitive to heat at temperatures which are not damaging to the skin. The response is in the form of jumping, withdrawal of paws or licking of the paws (Eddy and Leimback, 1953). The animals were placed on Eddy's hot plate at a temperature of 55±0.5° C. […] Reaction time and the type of response were noted using a stopwatch. The latency was recorded before and after 30, 60, 90 and 120 minutes following s.c. injection of test compounds (0.5 mg and 1 mg·kg), standard drug (pentazocine) and control vehicle respectively. The dose selection of the test compounds was based on the literature of nicotine (0.32-1.6 mg/kg s.c.). Average reaction time was then calculated and the percentage variation calculated using the following ratio: Percentage protection=Drug latency−Baseline latency×100Baseline latency

[3] = test system: Corynebacterium; assay: Kirby Bauer disc diffusion, Corynebacterium; assay type: cell-based
[4] = test system: M. tuberculosis (H37RV Strain) ATCC 25177; assay: Anti-TB activity, microplate Alamar Blue assay (MABA); assay type: cell-based, Mycobacterium Tuberculosis; conditions: for MIC: Mycobacterium tuberculosis, 120 h, read-out: MIC (minimum inhibition concentration); for MIC (minimum inhibition concentration): lowest drug concentration preventing colour change blue to pink, 37° C., five days, tested 100 to 0.2 μg/ml
[5] = test system: Streptococcus mutans; assay: Kirby Bauer disc diffusion, Streptococcus mutans; assay type: cell-based
[6] = test system: Gram positive bacteria (Staphylococcus aureus, Enterococcus faecalis), Gram negative bacteria (E. Coli and Pseudomonas aeruginosa); assay: Kirby-Bauer disc diffusion, bacteria; assay type: cell-based
[7] = test system: Male Albino Mice; assay: Acetic Acid-Induced Writhing Response test; assay type: in vivo
Experimental: Group-I: Control-Normal saline (0.1 ml i.p./10 gm) • 2. Group-II: Diclofenac (10 mg/kg body weight, i.p.) • 3. Group-V: Compound-ARP100120 (3 mg/kg body weight, i.p.) • The number of writhes (abdominal muscular contractions), stretching of the hind limbs and trunk twisting were counted 5 minutes after the injection of 1% acetic acid (v/v, 0.1 mL/10 g body weight, i.p.). The data collected represented the total number of writhes observed in duration of 10 minutes (5-15 minutes after the injection). Percentage inhibition was then calculated. Percentage inhibition ═(N−N^t/N)×100, where N is the average number of writhing of control group and N^t is the average number of writhing of test group. • Results are as follows: […]

## CC(=O)c1ccc(-c2cncc(C(=O)C3CCN(C)C3=O)c2)s1 (stereo not shown) [ARP100101, 3-(5-(5-acetylthiophen-2-yl)nicotinoyl)-1-methylpyrrolidin-2-one]
[1]; 50 μg
  antifungal activity (zone of inhibition, disc diffusion): exhibit antifungal activity
[1]; 100 μg
  antifungal activity (zone of inhibition, disc diffusion): exhibit antifungal activity

## CN1CCC(C(=O)c2cncc(-c3ccc(F)cc3)c2)C1=O (stereo not shown) [ARP100102, 3-(5-(4-fluorophenyl)nicotinoyl)-1-methylpyrrolidin-2-one]
[2]
  analgesic activity (reaction time in hot plate test): demonstrate analgesic activity
[3]; 50 μg
  antibacterial activity against Corynebacterium (inhibition zone): good antibacterial activity
[3]; 100 μg
  antibacterial activity against Corynebacterium (inhibition zone): good antibacterial activity
[4]
  MIC: ≤ 0.05 µg/mL
[5]; 50 μg
  antibacterial activity against Streptococcus mutans (inhibition zone): good antibacterial activity
[5]; 100 μg
  antibacterial activity against Streptococcus mutans (inhibition zone): good antibacterial activity
[1]; 5 μg
  antifungal activity (zone of inhibition, disc diffusion): exhibit antifungal activity
[1]; 25 μg
  antifungal activity (zone of inhibition, disc diffusion): exhibit antifungal activity
[1]; 50 μg
  antifungal activity (zone of inhibition, disc diffusion): exhibit antifungal activity
[1]; 100 μg
  antifungal activity (zone of inhibition, disc diffusion): exhibit antifungal activity

## Cc1cccc(-c2cncc(C(=O)C3CCN(C)C3=O)c2)c1 (stereo not shown) [ARP100104, 1-methyl-3-(5-m-tolylnicotinoyl)pyrrolidin-2-one]
[1]; 100 μg
  antifungal activity (zone of inhibition, disc diffusion): exhibit antifungal activity

## CN1CCC(C(=O)c2cncc(-c3ccc(Cl)cc3)c2)C1=O (stereo not shown) [ARP100105, 3-(5-(4-chlorophenyl)nicotinoyl)-1-methylpyrrolidin-2-one]
[6]; 50 μg
  antibacterial activity (zone of inhibition, disc diffusion): both antibacterial and antifungal activity
[6]; 100 μg
  antibacterial activity (zone of inhibition, disc diffusion): both antibacterial and antifungal activity
[1]; 50 μg
  antifungal activity (zone of inhibition, disc diffusion): both antibacterial and antifungal activity
[1]; 100 μg
  antifungal activity (zone of inhibition, disc diffusion): both antibacterial and antifungal activity

## CN1CCC(C(=O)c2cncc(-c3ccc(C=O)cc3)c2)C1=O (stereo not shown) [ARP100106, 4-(5-(1-methyl-2-oxopyrrolidine-3-carbonyl)pyridin-3-yl)benzaldehyde]
[6]; 100 μg
  antibacterial activity (zone of inhibition, disc diffusion): both antibacterial and antifungal activity
[1]; 100 μg
  antifungal activity (zone of inhibition, disc diffusion): both antibacterial and antifungal activity

## COc1ccc(-c2cncc(C(=O)C3CCN(C)C3=O)c2)cc1 (stereo not shown) [ARP100108, 3-(5-(4-methoxyphenyl)nicotinoyl)-1-methylpyrrolidin-2-one]
[1]; 100 μg
  antifungal activity (zone of inhibition, disc diffusion): exhibit antifungal activity

## CN1CCC(C(=O)c2cncc(-c3cccc(F)c3)c2)C1=O (stereo not shown) [ARP100111, 3-(5-(3-fluorophenyl)nicotinoyl)-1-methylpyrrolidin-2-one]
[6]; 100 μg
  antibacterial activity on both gram positive and gram negative bacteria: showed antibacterial activity

## CN1CCC(C(=O)c2cncc(-c3ccc4ccccc4c3)c2)C1=O (stereo not shown) [ARP100119, 1-methyl-3-(5-(naphthalen-2-yl)nicotinoyl)pyrrolidin-2-one]
[1]; 50 μg
  antifungal activity (zone of inhibition, disc diffusion): exhibit antifungal activity
[1]; 100 μg
  antifungal activity (zone of inhibition, disc diffusion): exhibit antifungal activity

## CC(=O)Oc1ccc(-c2cncc(C(=O)C3CCN(C)C3=O)c2)cc1 (stereo not shown) [ARP100120, 4-(5-(1-methyl-2-oxopyrrolidine-3-carbonyl)pyridin-3-yl)phenyl acetate]
[7]; 3 mg/kg i.p.
  analgesic activity (writhing test): demonstrate analgesic activity
[1]; 100 μg
  antifungal activity (zone of inhibition, disc diffusion): exhibit antifungal activity

## CN1CCC(C(=O)c2cncc(-c3cccc(C=O)c3)c2)C1=O (stereo not shown) [ARP100121, 3-(5-(1-methyl-2-oxopyrrolidine-3-carbonyl)pyridin-3-yl)benzaldehyde]
[1]; 50 μg
  antifungal activity (zone of inhibition, disc diffusion): exhibit antifungal activity
[1]; 100 μg
  antifungal activity (zone of inhibition, disc diffusion): exhibit antifungal activity

## CCCCc1cncc(C(=O)C2CCN(C)C2=O)c1 (stereo not shown) [ARP100122, 3-(5-butylnicotinoyl)-1-methylpyrrolidin-2-one]
[1]; 100 μg
  antifungal activity (zone of inhibition, disc diffusion): exhibit antifungal activity

## O=C(O)c1cn(C2CC2)c2cc(N3CCNCC3)c(F)cc2c1=O [Ciprofolxacin]
[4]
  MIC (minimum inhibition concentration): 3.125 µg/mL (≈ 9.43 µM)

## O=C(O)Cc1ccccc1Nc1c(Cl)cccc1Cl [Diclofenac, reference compound]
[7]; 5-15 minutes after 1% acetic acid i.p., Diclofenac 10 mg/kg i.p., ARP100120 3 mg/kg i.p.
  Number of Writhing: 34.50 ± 1.586
[7]; versus control, Diclofenac 10 mg/kg i.p., ARP100120 3 mg/kg i.p.
  Percentage Inhibition (writhing): 26.86%

## CN1CCCC1c1cccnc1 (stereo not shown) [Nicotine]
[6]; 1000 μg/ml
  antibacterial activity (disc diffusion): did not show any antibacterial activity

## NC(=O)c1cnccn1 [Pyrazinamide]
[4]
  MIC: 3.12 µg/mL (≈ 25.4 µM)

## CN[C@@H]1[C@H](O[C@H]2[C@H](O[C@H]3[C@H](O)[C@@H](O)[C@H](N=C(N)N)[C@@H](O)[C@@H]3N=C(N)N)O[C@@H](C)[C@]2(O)C=O)O[C@@H](CO)[C@H](O)[C@H]1O [Steptomycin]
[4]
  MIC (minimum inhibition concentration): 6.25 µg/mL (≈ 10.7 µM)
